We go through eleven molecules from ChEMBL document CHEMBL1201862, “PubChem BioAssay data set” (2004).

Each structure is given as a SMILES string.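 Compound exposure: 48 hours, 5 concentrations, 96-well plates. GI50 is the concentration that inhibits growth by half.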 Calls of active or inactive are those of the source. Rule as the data show it: active = GI50 up to about 1.1 µM and inactive = higher. Where only a bound is given, the exact number is not on record here.

Holding throughout (assay): NCI-60 cell line screen, 48 h
The subject of assay [1] is 786-0.
The test system of assay [2] is CCRF-CEM.
In assay [3] the test system is HCT-116.
The subject of assay [4] is HCT-15.
For assay [5], the system named is HOP-62.
Assay [6] deals with HOP-92.
The test system of assay [7] is K562.
Assay [8] deals with MDA-MB-231.
In assay [9] the test system is MOLT-4.
For assay [10], the system named is OVCAR-8.
For assay [11], the system named is SF-295.
Assay [12] has as its system SF-539.
In assay [13] the test system is SK-MEL-28.
Assay [14] concerns SK-MEL-5.
Assay [15] concerns SNB-19.
Assay [16] relates to SNB-75.
For assay [17], the system named is UACC-257.
Assay [18] deals with NCI-H23.
The test system of assay [19] is Malme-3M.
Assay [20] has as its system NCI-H226.

Take `CSc1ccc(/C=C2\N=C(c3ccccc3)N(/N=C/c3cc4cc(C)ccc4nc3Cl)C2=O)cc1`: the GI50 in assay [1] is 17.9 µM (inactive); in assay [2] it was 12 µM (inactive); in assay [3] it was 13.6 µM (inactive); in assay [4], 23.3 µM; in [5] it was 33.2 µM (inactive); in assay [6], 17.9 µM (inactive). The GI50 was 22 µM (inactive) in assay [7]; 19.6 µM (inactive) in assay [8]; 13.5 µM (inactive) in assay [9]; 16.1 µM (inactive) in assay [10]; 17.9 µM (inactive) in assay [11]; 16.5 µM (inactive) in assay [12]. Also, the GI50 was 18.2 µM (inactive) in assay [13]; 16.1 µM (inactive) in assay [14]; 16.7 µM (inactive) in [15]; 21.2 µM (inactive) in assay [16]; 19.4 µM (inactive) in assay [17].
In the case of `Cc1ccc(-c2nc(-c3cnccn3)n(C3OC(CO)C(O)C(O)C3O)n2)cc1` (configuration not stated), the GI50 in assay [1] is > 100 µM (inactive); in assay [2], > 100 µM (inactive); in assay [3], > 100 µM (inactive); in [4], more than 100 µM; in assay [5] it was > 100 µM (inactive); in [6] it was > 100 µM (inactive). Further, the GI50 in [7], in [8], in assay [9], in assay [18], in assay [10] and in assay [11] was > 100 µM (inactive) each time. The GI50 in assay [12], in assay [13], in assay [14], in [15], in assay [16] and in [17] was > 100 µM (inactive) throughout.
`CC(C)=Cc1cc(CCC/C(C)=C/Cc2c(O)cc(C)c(C(=O)O)c2O)co1`: the GI50 in assay [1] was > 100 µM (inactive); in assay [2], 32.1 µM (inactive); in [3], > 100 µM (inactive); in assay [4] it was more than 100 µM; in assay [5] it was > 100 µM (inactive); in assay [6], > 100 µM (inactive). For the same molecule, the GI50 is 0.203 µM (active) in assay [7]; 39 µM (inactive) in [8]; > 100 µM (inactive) in [18]; 84.9 µM (inactive) in [10]; > 100 µM (inactive) in assay [11]; > 100 µM (inactive) in assay [12]. Also, the GI50 in [13], in assay [14], in assay [15], in assay [16] and in assay [17] was > 100 µM (inactive) each time.
Take `O=C(/C=C/c1cccs1)c1ccc([N+](=O)[O-])cc1`: the GI50 in assay [1] was > 100 µM (inactive); in assay [2] it was > 100 µM (inactive); in [3], 58.1 µM (inactive); in assay [4], more than 100 µM; in assay [5], > 100 µM (inactive); in assay [7], 66.1 µM (inactive). Besides, the GI50 is > 100 µM (inactive) in assay [8]; 71 µM (inactive) in assay [9]; > 100 µM (inactive) in [19]; 78.9 µM (inactive) in assay [20]; > 100 µM (inactive) in assay [18]; > 100 µM (inactive) in assay [10]. The GI50 in [11] is 90.8 µM (inactive); in assay [12], > 100 µM (inactive); in assay [13], > 100 µM (inactive); in [14] it was > 100 µM (inactive); in [15] it was 94.8 µM (inactive); in [16] it was 77.8 µM (inactive). For the same molecule, in [17], the GI50 was > 100 µM (inactive).
Turning to `CCCCc1c(O)nc(Nc2nc3ccccc3[nH]2)[nH]c1=O`, the GI50 is > 100 µM (inactive) in assay [1]; > 100 µM (inactive) in [2]; > 100 µM (inactive) in [3]; more than 100 µM in assay [4]; > 100 µM (inactive) in assay [5]; > 100 µM (inactive) in assay [7]. The GI50 is > 100 µM (inactive) in [8]; > 100 µM (inactive) in assay [9]; 22.1 µM (inactive) in [19]; 67 µM (inactive) in assay [20]; > 100 µM (inactive) in assay [18]; > 100 µM (inactive) in assay [10]. Further, the GI50 in assay [11], in assay [12], in assay [13], in assay [14], in [15] and in [16] was > 100 µM (inactive) in each case. The GI50 in assay [17] is > 100 µM (inactive).
Consider `COC1=CC(=O)c2c(c(-c3csc(C)n3)cn2C)C1=O`, for which the GI50 was 36 µM (inactive) in [1]; 19.2 µM (inactive) in assay [2]; 23.4 µM (inactive) in assay [3]; 6.34 µM in assay [4]; 30 µM (inactive) in [5]; > 100 µM (inactive) in [6]. Moreover, the GI50 in assay [7] is 25.4 µM (inactive); in assay [8] it was 29.4 µM (inactive); in [9], 31.9 µM (inactive); in assay [20], 33.6 µM (inactive); in assay [18], 2.56 µM (inactive); in assay [10] it was 22.6 µM (inactive). In addition, the GI50 was 6.75 µM (inactive) in assay [11]; 17.9 µM (inactive) in assay [12]; 44.5 µM (inactive) in assay [13]; 1.72 µM (inactive) in [14]; 8.04 µM (inactive) in [15]; 4.31 µM (inactive) in assay [16]. In [17], the GI50 is 5.92 µM (inactive).
As for `COC(=O)C1CCC(=S)N1C(=O)c1ccccc1` (configuration not stated), the GI50 in assay [1] was > 100 µM (inactive); in [2] it was > 100 µM (inactive); in assay [3], > 100 µM (inactive); in assay [4] it was more than 100 µM; in assay [5], > 100 µM (inactive); in assay [6], > 100 µM (inactive). The GI50 in assay [7] is 4.94 µM (inactive); in assay [8], > 100 µM (inactive); in assay [9] it was 26.5 µM (inactive); in [19], > 100 µM (inactive); in [18], > 100 µM (inactive); in assay [10], > 100 µM (inactive). Moreover, the GI50 in [11], in assay [13], in assay [14], in assay [15], in assay [16] and in assay [17] was > 100 µM (inactive) throughout.
For `Cc1cc(C)n(C2=NS(=O)(=O)c3ccccc3N2C)n1`, the GI50 is > 100 µM (inactive) in assay [1]; > 100 µM (inactive) in assay [2]; > 100 µM (inactive) in assay [3]; more than 100 µM in [4]; > 100 µM (inactive) in [5]; > 100 µM (inactive) in [6]. In addition, the GI50 in assay [7], in assay [8], in assay [9], in assay [20], in assay [18] and in assay [10] was > 100 µM (inactive) each time. The GI50 in assay [11], in [12], in assay [13], in [14], in assay [15] and in assay [17] was > 100 µM (inactive) each time.
Turning to `O=C(CC(C(=O)c1ccsc1)c1ccsc1)c1ccsc1` (configuration not stated), the GI50 in assay [1] was > 100 µM (inactive); in assay [2], 43.1 µM (inactive); in assay [3], 43.4 µM (inactive); in assay [4], 61.4 µM; in assay [5], > 100 µM (inactive); in assay [7], 54.6 µM (inactive). For the same molecule, the GI50 is > 100 µM (inactive) in assay [8]; 35.6 µM (inactive) in [9]; > 100 µM (inactive) in assay [19]; > 100 µM (inactive) in assay [20]; 46.1 µM (inactive) in assay [18]; > 100 µM (inactive) in assay [10]. Moreover, the GI50 was 73.6 µM (inactive) in assay [11]; > 100 µM (inactive) in [12]; 82.8 µM (inactive) in assay [13]; 43.5 µM (inactive) in assay [14]; > 100 µM (inactive) in assay [15]; 56.5 µM (inactive) in assay [16]. In addition, in assay [17], the GI50 was 58.2 µM (inactive).
For `CCCCCCCCCCCCCC[S+](C)C`, the GI50 was 1.33 µM (inactive) in assay [1]; 1.23 µM (inactive) in assay [2]; 2.51 µM (inactive) in assay [3]; 3.93 µM in assay [4]; 1.67 µM (inactive) in assay [5]; 1.18 µM (inactive) in assay [6]. The GI50 was 1.4 µM (inactive) in assay [7]; 2.23 µM (inactive) in assay [8]; 1.23 µM (inactive) in [9]; 1.99 µM (inactive) in assay [20]; 1.5 µM (inactive) in assay [18]; 1.77 µM (inactive) in assay [10]. Also, the GI50 in assay [11] is 3.33 µM (inactive); in assay [12] it was 1.27 µM (inactive); in assay [13], 2.58 µM (inactive); in [14], 1.53 µM (inactive); in assay [15], 1.4 µM (inactive); in [16], 1.58 µM (inactive). Also, in assay [17], the GI50 was 2.45 µM (inactive).
In the case of `C[C@@H]1O[C@@H](O[C@H]2CC[C@]3(C=O)[C@H]4CC[C@]5(C)[C@@H](c6ccc(=O)oc6)CC[C@]5(O)[C@@H]4CC[C@]3(O)C2)[C@H](O)[C@H](O)[C@H]1O[C@@H]1O[C@H](CO)[C@@H](O)[C@H](O)[C@H]1O` [HELLEBRIN], the GI50 in assay [1] was 0.00451 µM (active); in assay [2] it was 0.00445 µM (active); in assay [3], 0.00805 µM (active); in assay [4], 0.0375 µM; in assay [5], 0.0375 µM (active); in [6], 0.0402 µM (active). Moreover, the GI50 in [7] is 0.0218 µM (active); in assay [8], 0.0379 µM (active); in assay [9], 0.00302 µM (active); in assay [20], 0.0231 µM (active); in [18], 0.00314 µM (active); in assay [10], 0.0126 µM (active). The GI50 in assay [11] was 0.0112 µM (active); in [12] it was 0.00811 µM (active); in [13] it was 0.0375 µM (active); in [14], 0.00841 µM (active); in assay [15] it was 0.0451 µM (active); in assay [16] it was 0.0198 µM (active). The GI50 in assay [17] is 0.0243 µM (active).
